Values quoted from earlier work, collected in US6933291B2, “Cholesterol lowering supplement” (N.V. Nutricia, priority 2000, dated 2005).

Legend:
[1] = case reports from the literature
[2] = rats
[3] = system: HMG-CoA reductase; conditions: rats given cholesterol

CC[C@H](C)C(=O)O[C@H]1C[C@@H](C)C=C2C=C[C@H](C)[C@H](CC[C@@H]3C[C@@H](O)CC(=O)O3)[C@H]21 [Lovastatin, lovastatin]
adverse effect reported in patients [1]: liver failure

CC[C@H](CC[C@@H](C)[C@H]1CC[C@H]2[C@@H]3CC=C4C[C@@H](O)CC[C@]4(C)[C@H]3CC[C@]12C)C(C)C [beta-sitosterol]
cholesterol absorption (effect in words) [2]: inhibited
cholesterol synthesis ([2]; increased from 20.0 mg/day): 28.8 mg/day

CC(C)CCC[C@@H](C)[C@H]1CC[C@H]2[C@@H]3CC=C4C[C@@H](O)CC[C@]4(C)[C@H]3CC[C@]12C [cholesterol]
conversion of cholesterol to bile acids ([2]; enhanced from 13.7 mg/day on feeding cholesterol): 27.3 mg/day
cholesterol absorption ([2]; increased from 1.2 mg/day on feeding cholesterol): 70 mg/day
HMG-CoA reductase activity inhibited [3]: 80%
